Experimental data: patent US12552846B2, “Modified BCL9 mimetic peptides” (Sapience Therapeutics, Inc., priority 2019, dated 2026)
Square brackets hold non-standard residues; d marks the D form. Peptide text beside a SMILES is read from it. * marks the point of attachment. Octanoyl = CCCCCCCC(=O)*

test system: HL60 promyelocytic leukemia cells; assay: Cytotoxicity assay in HL60 cells (Annexin V FITC / PI flow cytometry); type: cell-based; details: 48 hours, 0-80 μM, % Viability (Annexin V low, PI low)
Procedure: We examined the cytotoxicity of peptides BCL-26 and BCL-27 using an assay in HL60 promyelocytic leukemia cells. HL60 PML suspension cells were set at a density of 3.5×10^3 cells/well in 150 μL of RPMI+1.5% fetal bovine serum (FBS) in a 96 well dish. BCL-26 or BCL-27, reconstituted at a concentration of 10 mg/mL in 20 mM His, pH 7.5, was added to each well at a volume of 50 μL to a final concentration range of 0-80 μM. Cells were incubated with peptide for 48 hours at 37° C. Cell viability was quantified by flow cytometry using abcam Annexin V FITC apoptosis detection kit. Briefly, cells were washed with PBS and resuspended in 1× assay buffer containing Annexin V FITC and propidium iodide (PI). Annexin V detects apoptotic cells, and PI stains dead cells. After staining, apoptotic cells show green fluorescence, dead cells show red and green fluorescence, and live cells show little or no fluorescence. Cells were selected for analysis based on forward scatter (FSC) vs. side scatter (SSC), and analyzed by BD Accuri C6 Plus flow cytometer to detect Annexin V-FITC binding (Ex=488 nm; Em=530 nm) using FITC signal detector and PI staining by the phycoerythrnn emission signal detector. Percentage of Annexin V^low and PI^low were quantified and presented as % Viability.
We examined the cytotoxicity of additional retro inverso and mixed chirality BCL9 mimetic peptides in HL60 cells using the assay described above.

| SMILES | EC50 |
| --- | --- |
| CC(C)C[C@@H](NC(=O)[C@@H](Cc1c[nH]c2ccccc12)NC(=O)[C@H](N)Cc1c[nH]c2ccccc12)C(=O)N[C@H](C)C(=O)N[C@H](CCCNC(=N)N)C(=O)N[C@H](CCC(N)=O)C(=O)N[C@H](CC(C)C)C(=O)N[C@H](C)C(=O)N[C@H](CCCNC(=N)N)C(=O)N[C@H](CC(C)C)C(=O)N[C@H](C)C(=O)N[C@H](CCC(N)=O)C(=O)N[C@H](CC(C)C)C(=O)N[C@H](C)C(=O)N[C@H](CCCNC(=N)N)C(=O)N[C@H](CCC(=O)O)C(=O)N[C@H](CCCNC(=N)N)C(=O)N[C@H](Cc1c[nH]cn1)C(=O)N[C@H](CCC(=O)O)C(=O)N[C@H](CC(C)C)C(=O)N[C@H](CCC(N)=O)C(=O)N[C@H](CCC(=O)O)C(=O)N[C@H](CCC(N)=O)C(=O)N[C@H](CO)C(=O)N[C@H](CC(C)C)C(=O)N[C@H](CCCCN)C(=O)N[C@H](CC(C)C)C(=O)N[C@@H](C(=O)N1CCC[C@@H]1C(=O)N[C@@H](C(=O)O)C(C)C)[C@H](C)O [BCL-84] (H-[dW][dW][dL][dA][dR][dQ][dL][dA][dR][dL][dA][dQ][dL][dA][dR][dE][dR][dH][dE][dL][dQ][dE][dQ][dS][dL][dK][dL][dT][dP][dV]-OH; N-terminus and C-terminus assumed) | < 2000 nM |
| CC(C)C[C@@H](NC(=O)[C@@H](Cc1c[nH]c2ccccc12)NC(=O)[C@H](N)Cc1c[nH]c2ccccc12)C(=O)N[C@H](C)C(=O)N[C@H](CCCNC(=N)N)C(=O)N[C@H](CCC(N)=O)C(=O)N[C@H](CC(C)C)C(=O)N[C@H](C)C(=O)N[C@H](CCCNC(=N)N)C(=O)N[C@H](CC(C)C)C(=O)N[C@H](CCC(N)=O)C(=O)N[C@H](CCC(N)=O)C(=O)N[C@H](CC(C)C)C(=O)N[C@H](C)C(=O)N[C@H](CCCCN)C(=O)N[C@H](CC(C)C)C(=O)N[C@@H](C(=O)N1CCC[C@@H]1C(=O)N[C@@H](C(=O)O)C(C)C)[C@H](C)O [BCL-85] (H-[dW][dW][dL][dA][dR][dQ][dL][dA][dR][dL][dQ][dQ][dL][dA][dK][dL][dT][dP][dV]-OH; N-terminus and C-terminus assumed) | < 2000 nM |
| CC(C)C[C@@H](NC(=O)[C@@H](Cc1c[nH]c2ccccc12)NC(=O)[C@H](N)Cc1c[nH]c2ccccc12)C(=O)N[C@H](C)C(=O)N[C@H](CCCNC(=N)N)C(=O)N[C@H](CCC(N)=O)C(=O)N[C@H](CC(C)C)C(=O)N[C@H](CCC(=O)O)C(=O)N[C@H](CCCNC(=N)N)C(=O)N[C@H](CC(C)C)C(=O)N[C@H](C)C(=O)N[C@H](CCCNC(=N)N)C(=O)N[C@H](CC(C)C)C(=O)N[C@H](C)C(=O)N[C@H](CCCCN)C(=O)N[C@H](CC(C)C)C(=O)N[C@@H](C(=O)N1CCC[C@@H]1C(=O)N[C@@H](C(=O)O)C(C)C)[C@H](C)O [BCL-86] (H-[dW][dW][dL][dA][dR][dQ][dL][dE][dR][dL][dA][dR][dL][dA][dK][dL][dT][dP][dV]-OH; N-terminus and C-terminus assumed) | < 2000 nM |
| CC(C)C[C@@H](NC(=O)[C@@H](Cc1c[nH]c2ccccc12)NC(=O)[C@H](N)Cc1c[nH]c2ccccc12)C(=O)N[C@H](C)C(=O)N[C@H](CCCNC(=N)N)C(=O)N[C@H](CCC(N)=O)C(=O)N[C@H](CC(C)C)C(=O)N[C@H](CCC(=O)O)C(=O)N[C@H](CCCNC(=N)N)C(=O)N[C@H](CC(C)C)C(=O)N[C@H](CCCNC(=N)N)C(=O)N[C@H](CCCNC(=N)N)C(=O)N[C@H](CC(C)C)C(=O)N[C@H](C)C(=O)N[C@H](CCCCN)C(=O)N[C@H](CC(C)C)C(=O)N[C@@H](C(=O)N1CCC[C@@H]1C(=O)N[C@@H](C(=O)O)C(C)C)[C@H](C)O [BCL-88] (H-[dW][dW][dL][dA][dR][dQ][dL][dE][dR][dL][dR][dR][dL][dA][dK][dL][dT][dP][dV]-OH; N-terminus and C-terminus assumed) | < 2000 nM |
| CC(C)C[C@@H](NC(=O)[C@@H](Cc1c[nH]c2ccccc12)NC(=O)[C@H](N)Cc1c[nH]c2ccccc12)C(=O)N[C@H](C)C(=O)N[C@H](CCCNC(=N)N)C(=O)N[C@H](CCC(N)=O)C(=O)N[C@H](CC(C)C)C(=O)N[C@H](C)C(=O)N[C@H](CCCNC(=N)N)C(=O)N[C@H](CC(C)C)C(=O)N[C@H](CCCCN)C(=O)N[C@H](CCC(N)=O)C(=O)N[C@H](CC(C)C)C(=O)N[C@H](C)C(=O)N[C@H](CCCCN)C(=O)N[C@H](CC(C)C)C(=O)N[C@@H](C(=O)N1CCC[C@@H]1C(=O)N[C@@H](C(=O)O)C(C)C)[C@H](C)O [BCL-89] (H-[dW][dW][dL][dA][dR][dQ][dL][dA][dR][dL][dK][dQ][dL][dA][dK][dL][dT][dP][dV]-OH; N-terminus and C-terminus assumed) | 2000 to 10000 nM |
| CC(C)C[C@@H](NC(=O)[C@@H](Cc1c[nH]c2ccccc12)NC(=O)[C@H](N)Cc1c[nH]c2ccccc12)C(=O)N[C@H](C)C(=O)N[C@H](CCCNC(=N)N)C(=O)N[C@H](CCC(N)=O)C(=O)N[C@H](CC(C)C)C(=O)N[C@H](CCC(=O)O)C(=O)N[C@H](CCCNC(=N)N)C(=O)N[C@H](CC(C)C)C(=O)N[C@H](C)C(=O)N[C@H](CCCCN)C(=O)N[C@H](CC(C)C)C(=O)N[C@H](C)C(=O)N[C@H](CCCCN)C(=O)N[C@H](CC(C)C)C(=O)N[C@@H](C(=O)N1CCC[C@@H]1C(=O)N[C@@H](C(=O)O)C(C)C)[C@H](C)O [BCL-90] (H-[dW][dW][dL][dA][dR][dQ][dL][dE][dR][dL][dA][dK][dL][dA][dK][dL][dT][dP][dV]-OH; N-terminus and C-terminus assumed) | 2000 to 10000 nM |
| CC(C)C[C@@H](NC(=O)[C@@H](CCCNC(=N)N)NC(=O)[C@@H](C)NC(=O)[C@@H](CC(C)C)NC(=O)[C@@H](CCC(N)=O)NC(=O)[C@@H](CCCNC(=N)N)NC(=O)[C@H](NC(=O)[C@@H](CC(C)C)NC(=O)[C@@H](Cc1c[nH]c2ccccc12)NC(=O)[C@H](N)Cc1c[nH]c2ccccc12)C(C)C)C(=O)N[C@H](C)C(=O)N[C@H](CCC(N)=O)C(=O)N[C@H](CC(C)C)C(=O)N[C@H](C)C(=O)N[C@H](CCCCN)C(=O)N[C@H](CC(C)C)C(=O)N[C@@H](C(=O)N1CCC[C@@H]1C(=O)N[C@@H](C(=O)O)C(C)C)[C@H](C)O [BCL-91a] (H-[dW][dW][dL][dV][dR][dQ][dL][dA][dR][dL][dA][dQ][dL][dA][dK][dL][dT][dP][dV]-OH; N-terminus and C-terminus assumed) | < 2000 nM |
| CCCCCCCC(=O)N[C@H](Cc1c[nH]c2ccccc12)C(=O)N[C@H](Cc1c[nH]c2ccccc12)C(=O)N[C@H](CC(C)C)C(=O)N[C@@H](C(=O)N[C@H](CCCNC(=N)N)C(=O)N[C@H](CCC(N)=O)C(=O)N[C@H](CC(C)C)C(=O)N[C@H](C)C(=O)N[C@H](CCCNC(=N)N)C(=O)N[C@H](CC(C)C)C(=O)N[C@H](C)C(=O)N[C@H](CCC(N)=O)C(=O)N[C@H](CC(C)C)C(=O)N[C@H](C)C(=O)N[C@H](CCCCN)C(=O)N[C@H](CC(C)C)C(=O)N[C@@H](C(=O)N1CCC[C@@H]1C(=O)N[C@@H](C(=O)O)C(C)C)[C@H](C)O)C(C)C [BCL-91b] (Octanoyl-[dW][dW][dL][dV][dR][dQ][dL][dA][dR][dL][dA][dQ][dL][dA][dK][dL][dT][dP][dV]-OH; C-terminus assumed) | < 2000 nM |
| CC(C)C[C@@H](NC(=O)[C@@H](CCC(N)=O)NC(=O)[C@@H](C)NC(=O)[C@@H](CC(C)C)NC(=O)[C@@H](CCCNC(=N)N)NC(=O)[C@@H](C)NC(=O)[C@@H](CC(C)C)NC(=O)[C@@H](CCC(N)=O)NC(=O)[C@@H](CCCNC(=N)N)NC(=O)[C@@H](C)NC(=O)[C@@H](CC(C)C)NC(=O)[C@@H](Cc1c[nH]c2ccccc12)NC(=O)[C@@H](Cc1c[nH]c2ccccc12)NC(=O)CNC(=O)[C@@H](CCCNC(=N)N)NC(=O)CNC(=O)[C@@H](CC(=O)O)NC(=O)[C@@H](CO)NC(=O)[C@H]1CCCN1)C(=O)N[C@H](C)C(=O)O [BCL-92] (H-[dP][dS][dD]G[dR]G[dW][dW][dL][dA][dR][dQ][dL][dA][dR][dL][dA][dQ][dL][dA]-OH; N-terminus and C-terminus assumed) | 2000 to 10000 nM |
| CC(C)C[C@@H](NC(=O)[C@@H](Cc1c[nH]c2ccccc12)NC(=O)[C@@H](N)Cc1c[nH]c2ccccc12)C(=O)N[C@H](C)C(=O)N[C@H](CCCNC(=N)N)C(=O)N[C@H](CCC(N)=O)C(=O)N[C@H](CC(C)C)C(=O)N[C@H](C)C(=O)N[C@H](CCCNC(=N)N)C(=O)N[C@H](CC(C)C)C(=O)N[C@H](C)C(=O)N[C@H](CCC(N)=O)C(=O)N[C@H](CC(C)C)C(=O)N[C@H](C)C(=O)N[C@H](CCCCN)C(=O)N[C@H](CC(C)C)C(=O)N[C@@H](C(=O)N1CCC[C@@H]1C(=O)N[C@@H](C(=O)O)C(C)C)[C@H](C)O [BCL-95] (H-W[dW][dL][dA][dR][dQ][dL][dA][dR][dL][dA][dQ][dL][dA][dK][dL][dT][dP][dV]-OH; N-terminus and C-terminus assumed) | < 2000 nM |
| CC(C)C[C@@H](NC(=O)[C@@H](Cc1c[nH]c2ccccc12)NC(=O)[C@@H](N)Cc1c[nH]c2ccccc12)C(=O)N[C@H](C)C(=O)N[C@H](CCCNC(=N)N)C(=O)N[C@H](CCC(N)=O)C(=O)N[C@H](CC(C)C)C(=O)N[C@H](C)C(=O)N[C@H](CCCNC(=N)N)C(=O)N[C@H](CC(C)C)C(=O)N[C@H](CCCNC(=N)N)C(=O)N[C@H](CCC(N)=O)C(=O)N[C@H](CC(C)C)C(=O)N[C@H](C)C(=O)N[C@H](CCCCN)C(=O)N[C@H](CC(C)C)C(=O)N[C@@H](C(=O)N1CCC[C@@H]1C(=O)N[C@@H](C(=O)O)C(C)C)[C@H](C)O [BCL-96] (H-W[dW][dL][dA][dR][dQ][dL][dA][dR][dL][dR][dQ][dL][dA][dK][dL][dT][dP][dV]-OH; N-terminus and C-terminus assumed) | < 2000 nM |
